Laboratory results taken from patent US20240294523A1, “HETEROCYCLIC LACTAM COMPOUND, AND PREPARATION METHOD THEREFOR AND PHARMACEUTICAL USE THEREOF” (Genfleet Therapeutics (Shanghai) Inc., priority 2021, published 2024).

How the values were obtained:
L929 cells = experiment: Inhibition of TNF-α-induced programmed necrosis of L929 cells (CellTiter-Glo); format: cell-based; settings: 30 ng/ml mouse TNF-α + 15 μM Z-VAD, 6 hours
Protocol: The L929 cell line used in the following test examples was from ATCC, number: CCL-1, batch number: 70001022, culture medium: MEM+10% FBS+1% PS.
(§1) The reagents used, suppliers and product numbers of the reagents were as follows: RPMI-1640, Gibco, 11875-093; FBS, Gibco, 10099-141; Trypsin-EDTA, Gibco, 25200-072; PS, Gibco, 15140-122; CellTiter Glo , Progema, G7573; DMSO, VWR AMRESCO, 0231-500ML; TNF-α protein (human, recombinant), Peprotech, 300-01A; Q-VD-Oph, MCE, HY-12305; V-shaped bottom plate, Corning, 3894; 384-well low-flange white flat-bottom microplate, Corning, 3570; RIPK1, Eurofins, 16-022; MOPS, BDH, 441644J; EDTA, Sigma, E5134; Myelin basic protein, Sigma, M1891-25.00 MG; Magnesium acetate, Merck, DU008026; ATP (non-radioactive label), Sigma, A-7699; ATP (radioactive label), Hartmann Analytic, DU008054; Phosphoric acid, Metlab, DU003000; Z-VAD: Shanghai Yuang Chemical Industry, YA02401.
The compounds to be tested were dissolved in DMSO to prepare a 10 mM stock solution, and diluted 3.16 times with DMSO into a series of concentration gradients, and then dilute 100 times to prepare a working solution. 10000 L929 cells/well were seeded in a 384-well white plate. Compounds of corresponding concentrations were added to each well and mixed evenly with the cells. At the same time, 30 ng/ml mouse TNF-α and 15 μM Z-VAD were added to induce programmed necrosis of the cells, the final concentration of DMSO was 0.2%. The cells were placed at 37° C., 5% CO2 incubator for 6 hours. CellTiter-Glo reagent was used for detection, and the chemiluminescence reading was detected using a microplate reader after sufficient lysis reaction. The test results were calculated using the formula SR (%)=(RLU compound−RLU blank)/(RLU high control−RLU blank)×100%. The survival rate and the final concentration of the corresponding compound were drawn into a curve and fitted using four parameters. Inhibitory IC50 on TNF-α-induced cell necrosis of the compounds were calculated.

RIPK1 = RIPK1 (Homo sapiens (Human), UniProt Q13546); experiment: Inhibitory activity against RIPK1 enzyme (33P-ATP, MBP substrate); format: biochemical; settings: 36 nM RIPK1, 0.33 mg/ml MBP, 155 μM ATP, 2 hours, room temperature
Chain of RIPK1 (Q13546 whole entry): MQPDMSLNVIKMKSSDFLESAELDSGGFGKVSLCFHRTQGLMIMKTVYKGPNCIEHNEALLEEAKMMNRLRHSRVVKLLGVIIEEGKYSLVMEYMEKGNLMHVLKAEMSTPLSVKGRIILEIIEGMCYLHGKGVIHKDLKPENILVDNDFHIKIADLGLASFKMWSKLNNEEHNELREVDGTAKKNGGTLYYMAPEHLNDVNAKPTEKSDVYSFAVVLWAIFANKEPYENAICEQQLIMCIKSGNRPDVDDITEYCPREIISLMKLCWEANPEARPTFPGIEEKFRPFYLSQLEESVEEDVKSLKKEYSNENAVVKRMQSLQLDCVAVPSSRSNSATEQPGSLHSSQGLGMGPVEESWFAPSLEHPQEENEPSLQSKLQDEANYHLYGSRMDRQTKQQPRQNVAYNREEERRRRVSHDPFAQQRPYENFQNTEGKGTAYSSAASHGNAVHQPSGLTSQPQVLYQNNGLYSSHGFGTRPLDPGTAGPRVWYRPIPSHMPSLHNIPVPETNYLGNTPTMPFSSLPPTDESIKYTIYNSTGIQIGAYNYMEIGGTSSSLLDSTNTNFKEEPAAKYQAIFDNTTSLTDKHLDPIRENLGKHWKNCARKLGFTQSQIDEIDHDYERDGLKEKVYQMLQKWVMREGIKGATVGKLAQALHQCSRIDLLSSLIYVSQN
Protocol: as §1
The compound to be tested was dissolved in DMSO to prepare a 10 mM stock solution, diluted 3.16 times with DMSO into a series of concentration gradients, and then MOPS pH 7.0 buffer solution was used to dilute 50 times to prepare a working solution, and mixed well with 36 nM RIPK1 (final concentration), 0.33 mg/ml substrate MBP. Afterwards, 10 mM magnesium ions and 155 μM phosphorus 33 isotope-labeled ATP were added to react, The final concentration of DMSO was 2%. After the reaction was proceeded at room temperature for 2 hours, phosphoric acid was added to terminate. The final reaction system was processed and detected using a liquid scintillation counter. After the test results are subtracted from the blank control and compared with the reading value of the control group to convert to the activity percentage, which was plotted as a curve with the final concentration of the corresponding compound, and four-parameter fitting was used to obtain the IC50 of the compound that inhibits RIPK1 enzyme activity.

U937 cells = experiment: Inhibition of TNF-α-induced programmed necrosis of U937 cells (CellTiter-Glo); format: cell-based; settings: U-937, human TNF-α + Q-VD-Oph, 48 hours
Protocol: The U937 cell line used in the following test examples was from ATCC, number: CRL-1593.2, batch number: 63479999, culture medium: RPMI-1640+10% FBS.
as §1
The compounds to be tested were dissolved in DMSO and diluted with DMSO into a series of concentration gradients. 5000 U937 cells/well were seeded in a 384-well white plate. Compounds of corresponding concentrations were added to each well and mixed evenly with the cells. At the same time, human TNF-a and Q-VD-Oph were added to induce programmed necrosis of the cells. The cells were placed at 37° C., 5% CO2 incubator for 48 hours. CellTiter-Glo reagent was used for detection, and the chemiluminescence reading was detected using a microplate reader after sufficient lysis reaction. The test results were calculated using the formula SR (%)=(RLU compound−RLU blank)/(RLU high control−RLU blank)×100%. The survival rate and the final concentration of the corresponding compound were drawn into a curve and fitted using four parameters. Inhibitory IC50 on TNF-α-induced cell necrosis of the compounds were calculated.

Structure (SMILES) | IC50 (L929 cells) [nM] | IC50 (RIPK1) [nM] | IC50 (U937 cells) [nM]
C[C@H](C(F)F)N1CCc2c(nn(Cc3c(F)cccc3F)c2Cl)C1=O (single isomer, unassigned) [Compound Z9-2] | 450 | 89 | 42.8
C[C@@H](C(F)F)N1CCc2c(nn(Cc3c(F)cccc3F)c2Br)C1=O (single isomer, unassigned) [Compound Z24-2] | 348 | – | 29.7
O=C1c2nn(Cc3c(F)cccc3F)c(Cl)c2CCN1CC(F)F [Compound Z3, 3-chloro-2-(2,6-difluorobenzyl)-6-(2,2-difluoroethyl)-2,4,5,6-tetrahydro-7H-pyrazolo[3,4-c]pyridin-7-one] | – | 48 | 129
CC(C(F)F)N1CCc2c(nn(Cc3c(F)cccc3F)c2Cl)C1=O (stereo not drawn) [Compound Z9, 3-chloro-2-(2,6-difluorobenzyl)-6-(1,1-difluoropropan-2-yl)-2,4,5,6-tetrahydro-7H-pyrazolo[3,4-c]pyridin-7-one] | 600 | – | 57.1
